Data: patent US12240816B2, “Deuterated compounds and uses thereof” (Aldeyra Therapeutics, Inc., priority 2015, dated 2025)

Legend:
Experiment in all cases: biochemical
Type in all cases: biochemical
[1] = target: enzyme and uptake assay panel targets (Table 36) (Homo sapiens, UniProt Q14790); conditions: caspase-8 (h); 1.0E−05M
[2] = target: enzyme and uptake assay panel targets (Table 36) (Human immunodeficiency virus type 1 group M subtype B, UniProt P04585); conditions: HIV-1 protease; 1.0E−05M
[3] = target: enzyme and uptake assay panel targets (Table 36) (Homo sapiens, UniProt O00408); conditions: PDE2A1 (h); 1.0E−05M
[4] = target: enzyme and uptake assay panel targets (Table 36) (Homo sapiens, UniProt P24941); conditions: CDK2 (h) (cycA); 1.0E−05M
[5] = target: enzyme and uptake assay panel targets (Table 36) (Homo sapiens, UniProt P18054); conditions: 12-lipoxygenase (h); 1.0E−05M
[6] = target: enzyme and uptake assay panel targets (Table 36) (Homo sapiens, UniProt P07948); conditions: Lyn A kinase (h); 1.0E−05M
[7] = target: enzyme and uptake assay panel targets (Table 36) (Homo sapiens, UniProt P12821); conditions: ACE (h); 1.0E−05M; flag INTER: Test compound interferes with the assay detection method
[8] = target: enzyme and uptake assay panel targets (Table 36) (Homo sapiens, UniProt P08253); conditions: MMP-2 (h); 1.0E−05M
[9] = target: enzyme and uptake assay panel targets (Table 36) (Homo sapiens, UniProt Q9UQM7); conditions: CaMK2α (h); 1.0E−05M
[10] = target: enzyme and uptake assay panel targets (Table 36) (Homo sapiens, UniProt P03956); conditions: MMP-1 (h); 1.0E−05M; flag INTER: Test compound interferes with the assay detection method
[11] = target: enzyme and uptake assay panel targets (Table 36) (Homo sapiens, UniProt P35354); conditions: COX2(h); 1.0E−05M
[12] = target: enzyme and uptake assay panel targets (Table 36) (Homo sapiens, UniProt P00519); conditions: Abl kinase (h); 1.0E−05M
[13] = target: enzyme and uptake assay panel targets (Table 36) (Homo sapiens, UniProt P08473); conditions: Peptidase, Metalloproteinase, Neutral Endopeptidase; 1.0E−05M
[14] = target: enzyme and uptake assay panel targets (Table 36) (Homo sapiens, UniProt Q16539); conditions: p38α kinase (h); 1.0E−05M
[15] = target: enzyme and uptake assay panel targets (Table 36) (Homo sapiens, UniProt P56817); conditions: BACE-1 (h) (β-secretase); 1.0E−05M; flag INTER: Test compound interferes with the assay detection method
[16] = target: enzyme and uptake assay panel targets (Table 36) (Homo sapiens, UniProt O76074); conditions: PDE5 (h) (non-selective); 1.0E−05M
[17] = target: enzyme and uptake assay panel targets (Table 36) (Homo sapiens, UniProt Q9BYF1); conditions: ACE-2 (h); 1.0E−05M; flag INTER: Test compound interferes with the assay detection method
[18] = target: enzyme and uptake assay panel targets (Table 36) (Homo sapiens, UniProt P06241); conditions: Fyn kinase (h); 1.0E−05M
[19] = target: enzyme and uptake assay panel targets (Table 36) (Homo sapiens, UniProt P17948); conditions: FLT-1 kinase (h) (VEGFR1); 1.0E−05M
[20] = target: enzyme and uptake assay panel targets (Table 36) (Mus musculus, UniProt P29477); conditions: inducible NOS; 1.0E−05M
[21] = target: enzyme and uptake assay panel targets (Table 36) (Homo sapiens, UniProt P06213); conditions: IRK (h)(InsR); 1.0E−05M
[22] = tested on: T1, enzyme and uptake assay panel targets (Table 36); conditions: ATPase (Na+/K+); 1.0E−05M
T1 construct: other: ATPase (Na+/K+); 1.0E−05M; nH; porcine cerebral cortex

Chain of enzyme and uptake assay panel targets (Table 36) (Homo sapiens, UniProt P08473) (P08473 whole entry): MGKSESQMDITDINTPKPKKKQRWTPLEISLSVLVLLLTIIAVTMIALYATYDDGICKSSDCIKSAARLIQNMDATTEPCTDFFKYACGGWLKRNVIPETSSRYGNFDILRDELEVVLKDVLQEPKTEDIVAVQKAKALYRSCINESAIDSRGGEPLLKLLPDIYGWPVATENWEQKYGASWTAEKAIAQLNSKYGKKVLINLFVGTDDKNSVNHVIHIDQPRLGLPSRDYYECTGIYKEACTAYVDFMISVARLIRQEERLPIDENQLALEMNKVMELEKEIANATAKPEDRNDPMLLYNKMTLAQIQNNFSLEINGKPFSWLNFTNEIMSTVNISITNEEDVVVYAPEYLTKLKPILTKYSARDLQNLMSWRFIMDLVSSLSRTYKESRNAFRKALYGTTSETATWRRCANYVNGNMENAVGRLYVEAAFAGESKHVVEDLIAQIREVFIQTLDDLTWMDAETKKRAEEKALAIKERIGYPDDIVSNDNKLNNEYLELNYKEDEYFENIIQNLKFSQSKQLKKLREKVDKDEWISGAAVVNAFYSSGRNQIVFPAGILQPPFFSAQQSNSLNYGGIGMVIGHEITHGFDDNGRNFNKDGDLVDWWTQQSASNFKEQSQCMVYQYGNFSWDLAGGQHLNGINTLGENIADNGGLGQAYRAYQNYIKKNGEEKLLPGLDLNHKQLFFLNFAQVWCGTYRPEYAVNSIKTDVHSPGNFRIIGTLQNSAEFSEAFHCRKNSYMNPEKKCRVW
Chain of enzyme and uptake assay panel targets (Table 36) (Homo sapiens, UniProt P56817) (P56817 46-501): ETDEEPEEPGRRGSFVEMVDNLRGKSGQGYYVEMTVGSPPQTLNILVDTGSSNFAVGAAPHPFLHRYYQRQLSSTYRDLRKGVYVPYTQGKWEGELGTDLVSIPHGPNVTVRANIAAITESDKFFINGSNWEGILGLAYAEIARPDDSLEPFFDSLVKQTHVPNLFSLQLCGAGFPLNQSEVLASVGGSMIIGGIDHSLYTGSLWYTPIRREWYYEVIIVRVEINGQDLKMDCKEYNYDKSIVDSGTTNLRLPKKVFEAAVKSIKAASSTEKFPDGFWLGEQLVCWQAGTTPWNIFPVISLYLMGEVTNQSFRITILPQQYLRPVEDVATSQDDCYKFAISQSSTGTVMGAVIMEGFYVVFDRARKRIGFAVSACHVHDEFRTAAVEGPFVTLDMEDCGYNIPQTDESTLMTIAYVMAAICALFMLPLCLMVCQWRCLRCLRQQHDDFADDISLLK
Chain of enzyme and uptake assay panel targets (Table 36) (Mus musculus, UniProt P29477) (P29477 whole entry): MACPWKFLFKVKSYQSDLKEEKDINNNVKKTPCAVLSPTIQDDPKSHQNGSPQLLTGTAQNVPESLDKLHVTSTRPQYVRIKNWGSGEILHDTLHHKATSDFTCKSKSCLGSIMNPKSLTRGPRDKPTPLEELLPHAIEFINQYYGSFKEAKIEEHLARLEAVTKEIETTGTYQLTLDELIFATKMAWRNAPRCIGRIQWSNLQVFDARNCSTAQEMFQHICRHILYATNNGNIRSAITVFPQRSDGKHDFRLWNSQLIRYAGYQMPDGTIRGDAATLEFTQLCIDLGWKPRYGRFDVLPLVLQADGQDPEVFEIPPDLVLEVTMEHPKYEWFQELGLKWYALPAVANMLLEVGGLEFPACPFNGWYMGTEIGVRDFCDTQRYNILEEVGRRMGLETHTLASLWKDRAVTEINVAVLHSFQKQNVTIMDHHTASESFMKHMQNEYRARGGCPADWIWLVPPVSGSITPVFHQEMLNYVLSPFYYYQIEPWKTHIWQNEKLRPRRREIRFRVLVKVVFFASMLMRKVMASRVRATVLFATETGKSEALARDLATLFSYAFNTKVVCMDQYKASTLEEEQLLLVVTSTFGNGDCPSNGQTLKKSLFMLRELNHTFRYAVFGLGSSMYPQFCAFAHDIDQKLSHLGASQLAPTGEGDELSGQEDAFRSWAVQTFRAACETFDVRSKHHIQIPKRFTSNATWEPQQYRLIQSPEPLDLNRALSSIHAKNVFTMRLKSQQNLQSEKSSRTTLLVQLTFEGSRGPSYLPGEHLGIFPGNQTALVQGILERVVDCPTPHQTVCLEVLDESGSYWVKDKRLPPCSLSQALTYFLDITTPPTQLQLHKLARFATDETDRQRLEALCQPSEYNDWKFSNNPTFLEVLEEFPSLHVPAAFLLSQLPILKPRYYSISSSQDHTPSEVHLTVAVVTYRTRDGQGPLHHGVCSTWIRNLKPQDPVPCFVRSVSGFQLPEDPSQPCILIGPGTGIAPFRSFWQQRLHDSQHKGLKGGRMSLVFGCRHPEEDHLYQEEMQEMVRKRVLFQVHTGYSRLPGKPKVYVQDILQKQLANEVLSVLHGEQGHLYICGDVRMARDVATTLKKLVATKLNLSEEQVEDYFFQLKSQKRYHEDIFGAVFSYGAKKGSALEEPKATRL
Chain of enzyme and uptake assay panel targets (Table 36) (Homo sapiens, UniProt Q16539) (Q16539 whole entry): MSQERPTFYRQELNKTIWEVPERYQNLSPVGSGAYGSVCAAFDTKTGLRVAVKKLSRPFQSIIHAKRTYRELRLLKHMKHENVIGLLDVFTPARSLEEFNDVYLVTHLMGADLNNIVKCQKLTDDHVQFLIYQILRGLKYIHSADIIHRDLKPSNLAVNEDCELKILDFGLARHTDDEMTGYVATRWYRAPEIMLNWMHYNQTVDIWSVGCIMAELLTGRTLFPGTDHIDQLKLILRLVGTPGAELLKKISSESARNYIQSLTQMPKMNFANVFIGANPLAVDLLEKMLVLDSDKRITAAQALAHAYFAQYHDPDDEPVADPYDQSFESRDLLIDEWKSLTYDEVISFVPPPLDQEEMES
Chain of enzyme and uptake assay panel targets (Table 36) (Homo sapiens, UniProt P17948) (P17948 27-1338): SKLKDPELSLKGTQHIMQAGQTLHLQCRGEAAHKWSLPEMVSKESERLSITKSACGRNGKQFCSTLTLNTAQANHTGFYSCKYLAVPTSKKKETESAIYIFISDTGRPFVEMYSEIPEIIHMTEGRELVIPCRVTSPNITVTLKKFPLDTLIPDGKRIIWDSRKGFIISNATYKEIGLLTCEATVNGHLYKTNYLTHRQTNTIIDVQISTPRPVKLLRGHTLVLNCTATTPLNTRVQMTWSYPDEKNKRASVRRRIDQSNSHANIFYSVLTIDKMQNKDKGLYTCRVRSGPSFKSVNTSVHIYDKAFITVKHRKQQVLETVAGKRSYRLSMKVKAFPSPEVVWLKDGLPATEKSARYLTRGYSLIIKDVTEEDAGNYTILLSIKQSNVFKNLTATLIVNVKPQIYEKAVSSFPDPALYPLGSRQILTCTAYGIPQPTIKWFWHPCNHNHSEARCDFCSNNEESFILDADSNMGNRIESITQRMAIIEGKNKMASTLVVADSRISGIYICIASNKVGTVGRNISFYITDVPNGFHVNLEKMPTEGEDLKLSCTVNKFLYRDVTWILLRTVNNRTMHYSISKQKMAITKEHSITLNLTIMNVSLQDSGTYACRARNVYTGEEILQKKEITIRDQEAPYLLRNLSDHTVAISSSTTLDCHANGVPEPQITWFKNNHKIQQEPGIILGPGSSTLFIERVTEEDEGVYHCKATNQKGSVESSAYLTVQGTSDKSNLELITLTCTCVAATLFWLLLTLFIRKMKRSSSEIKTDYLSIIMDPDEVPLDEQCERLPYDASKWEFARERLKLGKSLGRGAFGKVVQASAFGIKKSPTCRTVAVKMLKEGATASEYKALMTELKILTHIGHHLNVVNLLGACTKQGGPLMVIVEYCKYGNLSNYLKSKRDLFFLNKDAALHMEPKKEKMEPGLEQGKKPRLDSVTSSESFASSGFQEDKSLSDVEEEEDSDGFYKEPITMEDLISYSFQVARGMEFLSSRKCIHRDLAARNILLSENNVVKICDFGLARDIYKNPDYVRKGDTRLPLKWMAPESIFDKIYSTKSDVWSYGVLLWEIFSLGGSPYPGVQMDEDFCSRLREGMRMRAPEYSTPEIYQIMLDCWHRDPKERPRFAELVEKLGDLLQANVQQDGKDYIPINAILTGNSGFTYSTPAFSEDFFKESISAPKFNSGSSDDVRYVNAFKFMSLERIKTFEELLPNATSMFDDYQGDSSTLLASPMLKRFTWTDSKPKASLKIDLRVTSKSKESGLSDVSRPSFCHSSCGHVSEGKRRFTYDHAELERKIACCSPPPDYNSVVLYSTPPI
Chain of enzyme and uptake assay panel targets (Table 36) (Homo sapiens, UniProt P08253) (P08253 110-660): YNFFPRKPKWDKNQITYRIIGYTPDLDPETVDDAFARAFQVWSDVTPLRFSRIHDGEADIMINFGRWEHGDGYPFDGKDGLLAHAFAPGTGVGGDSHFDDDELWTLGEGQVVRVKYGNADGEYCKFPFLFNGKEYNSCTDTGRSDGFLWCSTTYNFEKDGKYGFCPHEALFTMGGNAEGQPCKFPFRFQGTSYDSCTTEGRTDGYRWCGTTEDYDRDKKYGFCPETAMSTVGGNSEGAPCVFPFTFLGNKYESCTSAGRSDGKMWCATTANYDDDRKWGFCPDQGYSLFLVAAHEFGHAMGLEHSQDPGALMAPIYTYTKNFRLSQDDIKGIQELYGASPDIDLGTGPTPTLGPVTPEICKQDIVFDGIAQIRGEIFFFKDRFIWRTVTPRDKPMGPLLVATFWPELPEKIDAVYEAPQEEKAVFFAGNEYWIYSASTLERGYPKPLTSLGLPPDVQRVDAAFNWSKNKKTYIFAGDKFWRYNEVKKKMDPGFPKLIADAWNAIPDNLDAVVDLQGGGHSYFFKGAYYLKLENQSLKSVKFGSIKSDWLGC
Chain of enzyme and uptake assay panel targets (Table 36) (Homo sapiens, UniProt Q14790) (Q14790 217-479): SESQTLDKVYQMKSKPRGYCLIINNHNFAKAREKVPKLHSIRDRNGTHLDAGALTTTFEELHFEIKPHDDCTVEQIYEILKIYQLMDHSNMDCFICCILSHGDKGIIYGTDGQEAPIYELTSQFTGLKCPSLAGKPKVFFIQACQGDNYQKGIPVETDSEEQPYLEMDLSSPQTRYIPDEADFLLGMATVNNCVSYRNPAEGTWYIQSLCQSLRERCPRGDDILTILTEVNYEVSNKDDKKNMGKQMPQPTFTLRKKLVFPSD

[2H]C([2H])([2H])C(O)(c1nc2ccc(Cl)cc2cc1N)C([2H])([2H])[2H] [Compound I-1]
% inhibition of Control Values 1st [1]: 14.7%
% inhibition of Control Values 2nd [1]: 16.4%
% inhibition of Control Values Mean [1]: 15.6%
% inhibition of Control Values 1st [2]: 16.6%
% inhibition of Control Values 2nd [2]: 4.8%
% inhibition of Control Values Mean [2]: 10.7%
% inhibition of Control Values 1st [3]: 17.1%
% inhibition of Control Values 2nd [3]: −24.5%
% inhibition of Control Values Mean [3]: −3.7%
% inhibition of Control Values 1st [4]: 1.2%
% inhibition of Control Values 2nd [4]: −5.1%
% inhibition of Control Values Mean [4]: −1.9%
% inhibition of Control Values 1st [5]: −9.4%
% inhibition of Control Values 2nd [5]: −4.1%
% inhibition of Control Values Mean [5]: −6.7%
% inhibition of Control Values 1st [6]: −17.7%
% inhibition of Control Values 2nd [6]: −35.7%
% inhibition of Control Values Mean [6]: −26.7%
% inhibition of Control Values 1st [7]: 127.6%
% inhibition of Control Values 2nd [7]: 131.0%
% inhibition of Control Values Mean [7]: 129.3%
% inhibition of Control Values 1st [8]: 4.9%
% inhibition of Control Values 2nd [8]: −2.4%
% inhibition of Control Values Mean [8]: 1.3%
% inhibition of Control Values 1st [9]: 0.2%
% inhibition of Control Values 2nd [9]: −6.5%
% inhibition of Control Values Mean [9]: −3.1%
% inhibition of Control Values 1st [10]: 45.3%
% inhibition of Control Values 2nd [10]: 10.7%
% inhibition of Control Values Mean [10]: 28.0%
% inhibition of Control Values 1st [11]: 12.8%
% inhibition of Control Values 2nd [11]: 3.0%
% inhibition of Control Values Mean [11]: 7.9%
% inhibition of Control Values 1st [12]: −4.8%
% inhibition of Control Values 2nd [12]: −11.6%
% inhibition of Control Values Mean [12]: −8.2%
% inhibition of Control Values 1st [13]: 0.3%
% inhibition of Control Values 2nd [13]: 3.0%
% inhibition of Control Values Mean [13]: 1.7%
% inhibition of Control Values 1st [14]: −3.2%
% inhibition of Control Values 2nd [14]: −3.1%
% inhibition of Control Values Mean [14]: −3.2%
% inhibition of Control Values 1st [15]: −4.1%
% inhibition of Control Values 2nd [15]: −5.7%
% inhibition of Control Values Mean [15]: −4.9%
% inhibition of Control Values 1st [16]: −8.6%
% inhibition of Control Values 2nd [16]: −2.9%
% inhibition of Control Values Mean [16]: −5.7%
% inhibition of Control Values 1st [17]: 23.8%
% inhibition of Control Values 2nd [17]: 26.2%
% inhibition of Control Values Mean [17]: 25.0%
% inhibition of Control Values 1st [18]: −8.6%
% inhibition of Control Values 2nd [18]: −0.3%
% inhibition of Control Values Mean [18]: −4.5%
% inhibition of Control Values 1st [19]: −15.5%
% inhibition of Control Values 2nd [19]: −18.8%
% inhibition of Control Values Mean [19]: −17.2%
% inhibition of Control Values 1st [20]: 2.8%
% inhibition of Control Values 2nd [20]: −2.0%
% inhibition of Control Values Mean [20]: 0.4%
% inhibition of Control Values 1st [21]: −15.1%
% inhibition of Control Values 2nd [21]: −7.9%
% inhibition of Control Values Mean [21]: −11.5%
% inhibition of Control Values 1st [22]: 5.2%
% inhibition of Control Values 2nd [22]: −0.4%
% inhibition of Control Values Mean [22]: 2.4%
